Reference: patent publication US6875865B1, “Selected derivatives of K-252a” (Cephalon, Inc., priority 1996, dated 2005)

How the values were obtained:
[1] = system: basal forebrain cultures; experiment: Basal Forebrain ChAT Activity Assay; type: cell-based, rat; settings: day six
Experimental: Compounds of the invention were assessed for their ability to promote survival and increase in ChAT activity in basal forebrain cultures. ChAT activity in these cultures is a biochemical marker for the cholinergic neurons (less than 5% of the cells in culture), which represent the major cholinergic input to the hippocampal formation, olfactory nucleus, interpeduncular nucleus, cortex, amygdala, and parts of the thalamus. […] The basal forebrain was dissected from embryonic day 17 or 18 rat embryos and the cells were […] with Dispase™ (neutral protease, Collaborative Research). Neurons were plated at 5×10^4 cells/well (1.5×10^5 cells/cm^2) in wells of 96-well plates previously coated with […] and laminin. Cells were cultured in serum-free N2 medium containing 0.05% bovine serum albumin (BSA) (Bottenetein et al., supra) at 37° in a humidified atmosphere of 5% CO2/95% air. ChAT activity was measured in vitro at day six, using a modification of the Formum procedure (supra) according to McManaman et al. (supra) and Glicksman et al. (J. Neurochem. 61:210-221, 1993).
(§1) Compounds which increased ChAT activity at least 120% of the control activity are considered active.

[2] = system: dissociated spinal cord cultures; experiment: Spinal Cord ChAT Activity Assay; type: cell-based, rat
Experimental: The effect of selected ring substituted K-252a derivatives on CHAT activity was assayed in dissociated spinal cord cultures prepared from fetal rats using the procedure described in U.S. Pat. No. 5,461,146, Columns 26 and 27, Examples 6 and 7. ChAT is the enzyme that catalyzes the synthesis of the neurotransmitter acetylcholine, and it is a specific biochemical marker for cholinergic neurons. In the spinal cord, the large majority of cholinergic neurons are motor neurons. Assay of this enzyme may thus be used as an indication of the effects of a factor, or actors, on the survival of cholinergic neurons and/or regulation of this enzyme.
as §1

[3] = system: protein kinase C (PKC); settings: reported in the literature; cited from earlier work
[4] = concentration not given, tested between 10 nM and 500 nM, at least 120% of control = active
[5] = concentration not given, at least 120% of control = active

Row | SMILES | ChAT Activity maximum efficacy % of Control (conc) ([1]; maximum efficacy at 250 nM) | ChAT Activity maximum efficacy % of Control (conc) ([2]; maximum efficacy at 300 nM) | also measured
1 | COC(=O)C1(O)CC2OC1(C)n1c3ccc(CCOC(=O)c4ccncc4)cc3c3c4c(c5c6cc(CCOC(=O)c7ccncc7)ccc6n2c5c31)C(=O)NC4 (stereo not drawn) [Compound 71] | 152 (250 nM) % of Control | 193 (300 nM) % of Control | 
2 | CCSCCc1ccc2c(c1)c1c3c(c4c5cc(CCSCC)ccc5n5c4c1n2C1CC(O)(C(=O)OC)C5(C)O1)CNC3=O (stereo not drawn) [Compound 88] |  | 190 (300 nM) % of Control | ChAT Activity maximum efficacy % of Control (conc) [1, 4]: <120 % of Control
3 | COC(=O)C1(O)CC2OC1(C)n1c3ccc(CCSC)cc3c3c4c(c5c6cc(CCSC)ccc6n2c5c31)C(=O)NC4 (stereo not drawn) [Compound 87] | 262 (250 nM) % of Control | 294 (300 nM) % of Control | 
4 | CCOC(=O)C=Cc1ccc2c(c1)c1c3c(c4c5ccccc5n5c4c1n2C1(C)OC5CC1(O)C(=O)OC)C(=O)NC3 (stereo not drawn) [Compound 12] |  | 269 (300 nM) % of Control | ChAT Activity maximum efficacy % of Control (conc) ([1]; maximum efficacy at 500 nM): 184 (500 nM) % of Control
5 | CCSCC(=O)c1ccc2c(c1)c1c3c(c4c5ccccc5n5c4c1n2C1(C)OC5CC1(O)C(=O)OC)C(=O)NC3 (stereo not drawn) [Compound 41] |  | 204 (300 nM) % of Control | ChAT Activity maximum efficacy % of Control (conc) [1, 4]: <120 % of Control
6 | COC(=O)C1(O)CC2OC1(C)n1c3ccc(CCN=[N+]=[N-])cc3c3c4c(c5c6cc(CCN=[N+]=[N-])ccc6n2c5c31)C(=O)NC4 (stereo not drawn) [Compound 81] |  | 131 (300 nM) % of Control | ChAT Activity maximum efficacy % of Control (conc) [1, 4]: <120 % of Control
7 | COC(=O)C1(O)CC2OC1(C)n1c3ccc(CCSc4ccccn4)cc3c3c4c(c5c6cc(CCSc7ccccn7)ccc6n2c5c31)C(=O)NC4 (stereo not drawn) [Compound 94] | 166 (250 nM) % of Control | 152 (300 nM) % of Control | 
8 | COC(=O)C1(O)CC2OC1(C)n1c3ccc(C#CCN(C)Cc4ccccc4)cc3c3c4c(c5c6cc(Br)ccc6n2c5c31)C(=O)NC4 (stereo not drawn) [Compound 62] |  | 235 (300 nM) % of Control | ChAT Activity maximum efficacy % of Control (conc) ([1]; maximum efficacy at 50 nM): 202 (50 nM) % of Control
9 | COCCC(=O)c1ccc2c(c1)c1c3c(c4c5cc(C(=O)CCOC)ccc5n5c4c1n2C1CC(O)(C(=O)OC)C5(C)O1)CNC3=O (stereo not drawn) [Compound 54] | 167 (250 nM) % of Control |  | ChAT Activity maximum efficacy % of Control (conc) [2, 5]: <120 % of Control
10 | COC(=O)C1(O)CC2OC1(C)n1c3ccc(CCSc4ccc(O)cc4)cc3c3c4c(c5c6cc(CCSc7ccc(O)cc7)ccc6n2c5c31)C(=O)NC4 (stereo not drawn) [Compound 91] |  |  | ChAT Activity maximum efficacy % of Control (conc) [1, 4]: <120 % of Control; ChAT Activity maximum efficacy % of Control (conc) [2, 5]: <120 % of Control
11 | CCC=Cc1ccc2c(c1)c1c3c(c4c5cc(C=CCC)ccc5n5c4c1n2C1CC(O)(C(=O)OC)C5(C)O1)CNC3=O (stereo not drawn) [Compound 68] | 290 (250 nM) % of Control | 291 (300 nM) % of Control | 
12 | COC(=O)C1(O)CC2OC1(C)n1c3ccc(CCO)cc3c3c4c(c5c6cc(CCO)ccc6n2c5c31)C(=O)NC4 (stereo not drawn) [Compound 70c] | 203 (250 nM) % of Control | 186 (300 nM) % of Control | 
13 | COC(=O)C1(O)CC2OC1(C)n1c3ccc(C=Cc4ccccn4)cc3c3c4c(c5c6ccccc6n2c5c31)C(=O)NC4 (stereo not drawn) [Compound 13] |  |  | ChAT Activity maximum efficacy % of Control (conc) ([1]; maximum efficacy at 100 nM): 167 (100 nM) % of Control; ChAT Activity maximum efficacy % of Control (conc) ([2]; maximum efficacy at 30 nM): 271 (30 nM) % of Control
14 | COC(=O)C1(O)CC2OC1(C)n1c3ccc(CCCSC)cc3c3c4c(c5c6cc(CCCSC)ccc6n2c5c31)C(=O)NC4 (stereo not drawn) [Compound 95] | 239 (250 nM) % of Control | 272 (300 nM) % of Control | 
15 | COC(=O)C1(O)CC2OC1(C)n1c3ccc(C(=O)CSc4nnnn4C)cc3c3c4c(c5c6cc(C(=O)CSc7nnnn7C)ccc6n2c5c31)C(=O)NC4 (stereo not drawn) [Compound 52] |  |  | ChAT Activity maximum efficacy % of Control (conc) [1, 4]: <120 % of Control; ChAT Activity maximum efficacy % of Control (conc) [2, 5]: <120 % of Control
16 | COC(=O)C1(O)CC2OC1(C)n1c3ccc(C(O)CCCl)cc3c3c4c(c5c6cc(C(O)CCCl)ccc6n2c5c31)C(=O)NC4 (stereo not drawn) [Compound 59] | 131 (250 nM) % of Control | 160 (300 nM) % of Control | 
17 | COC(=O)C1(O)CC2OC1(C)n1c3ccc(CCc4ccccn4)cc3c3c4c(c5c6ccccc6n2c5c31)C(=O)NC4 (stereo not drawn) [Compound 14] |  | 282 (300 nM) % of Control | ChAT Activity maximum efficacy % of Control (conc) ([1]; maximum efficacy at 500 nM): 229 (500 nM) % of Control
18 | COC(=O)C1(O)CC2OC1(C)n1c3ccccc3c3c4c(c5c6ccccc6n2c5c31)C(=O)NC4 (stereo not drawn) [Compound K-252a, K-252a] |  |  | inhibition of protein kinase C (PKC) [3]: strongly inhibits
19 | COC(=O)C1(O)CC2OC1(C)n1c3ccc(C=Cc4ccccn4)cc3c3c4c(c5c6cc(CSc7ccccn7)ccc6n2c5c31)C(=O)NC4 (stereo not drawn) [Compound 119] |  |  | ChAT Activity maximum efficacy % of Control (conc) ([2]; maximum efficacy at 30 nM): 272 (30 nM) % of Control
